# What was measured:
# Septoria tritici [1] = test: Example C: in vivo preventive test on Septoria tritici (leaf spot on wheat); conditions: Zymoseptoria tritici, 576 h, read-out: efficacy
# Method: Example C: In Vivo Preventive Test on Septoria Tritici (Leaf Spot on Wheat)
# (§1) The active ingredients were made soluble and homogenized in a mixture of Dimethyl sulfoxide/Acetone/Tween® 80 and then diluted in water to the desired concentration.
# (§2) The young plants of wheat were treated by spraying the active ingredient prepared as described above. Control plants were treated only with an aqueous solution of Acetone/Dimethyl sulfoxide/Tween® 80.
# After 24 hours, the plants were contaminated by spraying the leaves with an aqueous suspension of Septoria tritici spores. The contaminated wheat plants were incubated for 72 hours at 18° C. and at 100% relative humidity and then for 21 days at 20° C. and at 90% relative humidity.
# The test was evaluated 24 days after the inoculation. 0% means an efficacy which corresponds to that of the control plants while an efficacy of 100% means that no disease was observed.
# [2] = Log P by HPLC on reversed phase columns (EEC directive 79/831 Annex V.A8; methods [a], [b], [c]); assay type: physicochemical
# Method in brief: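 Log P derived from retention times, interpolated linearly between bracketing straight-chain alkan-2-ones (3–16 carbons) of known Log P. Eluents ran acetonitrile 10% to 95% against water with 0.1% formic acid ([a], acidic), 0.001 M ammonium acetate ([b], neutral) or 0.1% phosphoric acid ([c], acidic); UV read-out.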
# Sphaerotheca fuliginea [3] = test: Example D: in vivo preventive test on Sphaerotheca fuliginea (powdery mildew on cucurbits); conditions: Podosphaera fuliginea, 360 h, read-out: efficacy
# Method: Example D: In Vivo Preventive Test on Sphaerotheca Fuliginea (Powdery Mildew on Cucurbits)
# as §1
# The young plants of gherkin were treated by spraying the active ingredient prepared as described above. Control plants were treated only with an aqueous solution of Acetone/Dimethyl sulfoxide/Tween® 80.
# After 24 hours, the plants were contaminated by spraying the leaves with an aqueous suspension of Sphaerotheca fuliginea spores. The contaminated gherkin plants were incubated for 72 hours at 18° C. and at 100% relative humidity and then for 12 days at 20° C. and at 70-80% relative humidity.
# The test was evaluated 15 days after the inoculation. 0% means an efficacy which corresponds to that of the control plants while an efficacy of 100% means that no disease was observed.
# Uromyces appendiculatus [4] = test: Example E: in vivo preventive test on Uromyces appendiculatus (bean rust); conditions: 264 h, read-out: efficacy
# Method: Example E: In Vivo Preventive Test on Uromyces Appendiculatus (Bean Rust)
# as §1
# The young plants of bean were treated by spraying the active ingredient prepared as described above. Control plants were treated only with an aqueous solution of Acetone/Dimethyl sulfoxide/Tween® 80.
# After 24 hours, the plants were contaminated by spraying the leaves with an aqueous suspension of Uromyces appendiculatus spores. The contaminated bean plants were incubated for 24 hours at 20° C. and at 100% relative humidity and then for 10 days at 20° C. and at 70-80% relative humidity.
# (§3) The test was evaluated 11 days after the inoculation. 0% means an efficacy which corresponds to that of the control plants while an efficacy of 100% means that no disease was observed.
# Puccinia recondita [5] = test: Example B: in vivo preventive test on Puccinia recondita (brown rust on wheat); conditions: 264 h, read-out: efficacy
# Method: Example B: In Vivo Preventive Test on Puccinia Recondita (Brown Rust on Wheat)
# as §1, §2
# After 24 hours, the plants were contaminated by spraying the leaves with an aqueous suspension of Puccinia recondita spores. The contaminated wheat plants were incubated for 24 hours at 20° C. and at 100% relative humidity and then for 10 days at 20° C. and at 70-80% relative humidity.
# as §3
# Septoria tritici [6] = test: Example IX-B: in vivo preventive test on Septoria tritici (leaf spot on wheat); conditions: Zymoseptoria tritici, 576 h; compounds of formula IX; 500 ppm of active ingredient; wheat plants, preventive spray; evaluated 24 days after inoculation; read-out: efficacy
# Method in brief: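 Wheat seedlings sprayed preventively with compound dissolved in DMSO/acetone/Tween 80 and diluted in water; solvent-only controls. Spore suspension of S. tritici sprayed 24 h later; 72 h at 18 °C/100% RH, then 21 days at 20 °C/90% RH. Efficacy scored 24 days post-inoculation, 0% = control, 100% = no disease.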
# Puccinia recondita [7] = test: Example IX-A: in vivo preventive test on Puccinia recondita (brown rust on wheat); conditions: 264 h, compounds of formula IX, 500 ppm of active ingredient, wheat plants, preventive spray, evaluated 11 days after inoculation, read-out: efficacy
# Method in brief: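 Young wheat plants sprayed with compound in DMSO/acetone/Tween 80 diluted in water, inoculated 24 h later with spore suspension. Incubated 24 h at 20 °C, 100% RH, then 10 days at 20 °C, 70-80% RH. Efficacy scored 11 days post-inoculation, 0% equal to solvent-treated controls, 100% no disease.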
# Sphaerotheca fuliginea [8] = test: Example IX-C: in vivo preventive test on Sphaerotheca fuliginea (powdery mildew on cucurbits); conditions: Podosphaera fuliginea, 360 h; compounds of formula IX; 500 ppm of active ingredient; gherkin plants, preventive spray; evaluated 15 days after inoculation; read-out: efficacy
# Method in brief: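 Young gherkin plants sprayed with compound in DMSO/acetone/Tween 80 diluted in water, then inoculated 24 h later with Sphaerotheca fuliginea spores. Kept 72 h at 18 °C/100% RH, then 12 days at 20 °C/70-80% RH; efficacy scored 15 days post-inoculation, 0% = control, 100% = no disease.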
# Uromyces appendiculatus [9] = test: Example IX-D: in vivo preventive test on Uromyces appendiculatus (bean rust); conditions: 264 h, compounds of formula IX, 500 ppm of active ingredient, bean plants, preventive spray, evaluated 11 days after inoculation, read-out: efficacy
# Method in brief: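 Young bean plants sprayed with compound (DMSO/acetone/Tween 80 in water), then inoculated 24 h later with Uromyces appendiculatus spores. Kept 24 h at 20° C, 100% RH, then 10 days at 20° C, 70–80% RH; efficacy scored 11 days post-inoculation, 0% = untreated control, 100% = no disease.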
# [10] = 500 ppm of active ingredient, wheat plants, preventive spray, evaluated 24 days after inoculation
# [11] = HPLC on reversed phase columns, method [a]
# [12] = 500 ppm of active ingredient, gherkin plants, preventive spray, evaluated 15 days after inoculation
# [13] = reversed phase HPLC column, HPLC on reversed phase columns, method [a]
# [14] = 500 ppm of active ingredient, bean plants, preventive spray, evaluated 11 days after inoculation
# [15] = 500 ppm of active ingredient, wheat plants, preventive spray, evaluated 11 days after inoculation
# [16] = HPLC on reversed phase column, method [a]
# [17] = reversed phase HPLC column, method [a]: LC-UV, acidic range, 0.1% formic acid in water and acetonitrile as eluent (linear gradient from 10% to 95% acetonitrile)
Compound,pest or weed control at 500 ppm (Septoria tritici [1]; [10]) [%],pest or weed control at 500 ppm (Sphaerotheca fuliginea [3]; [12]) [%],"chromatographic logP [2, 13]",pest or weed control at 500 ppm (Uromyces appendiculatus [4]; [14]) [%],pest or weed control at 500 ppm (Puccinia recondita [5]; [15]) [%],also measured
"C[Si](C)(C)C#Cc1ccc(C(O)(Cn2cncc2C#N)C2(F)CC2)c(Cl)c1 (stereo not shown) [I-394, 3-[2-[2-chloro-4-(2-trimethylsilylethynyl)phenyl]-2-(1-fluorocyclopropyl)-2-hydroxy-ethyl]imidazole-4-carbonitrile]",90 to 100,90 to 100,,,,"chromatographic logP [2, 11]: 4.06"
"CCC(O)(Cn1cncc1C#N)c1ccc(F)cc1 (stereo not shown) [I-245, 3-[2-(4-fluorophenyl)-2-hydroxy-butyl]imidazole-4-carbonitrile]",90 to 100,90 to 100,1.57,,,
"CC(=O)OC(Cn1cncc1F)c1cnc(Oc2ccc(Cl)cc2)cc1C(F)(F)F (stereo not shown) [I-133, [1-[6-(4-chlorophenoxy)-4-(trifluoromethyl)-3-pyridyl]-2-(5-fluoroimidazol-1-yl)ethyl]acetate]",90 to 100,90 to 100,,90 to 100,90 to 100,
"C#Cc1ccc(C(O)(Cn2cncc2C#N)C2(F)CC2)c(Cl)c1 (stereo not shown) [I-395, 3-[2-(2-chloro-4-ethynyl-phenyl)-2-(1-fluorocyclopropyl)-2-hydroxy-ethyl]imidazole-4-carbonitrile]",,,,,,"pest or weed control at 500 ppm (Septoria tritici [1]): 90 to 100%; chromatographic logP [2, 11]: 2.39; pest or weed control at 500 ppm (Sphaerotheca fuliginea [3]): 90 to 100%; pest or weed control at 500 ppm (Uromyces appendiculatus [4]): 90 to 100%; pest or weed control at 500 ppm (Puccinia recondita [5]): 80 to 89%"
"COC(Cn1cncc1F)c1cnc(Oc2ccc(Cl)cc2)cc1C(F)(F)F (stereo not shown) [I-131, 2-(4-chlorophenoxy)-5-[2-(5-fluoroimidazol-1-yl)-1-methoxy-ethyl]-4-(trifluoromethyl)pyridine]",90 to 100,90 to 100,2.82,,90 to 100,
"CC(O)(Cn1cncc1C#N)c1ccc(Oc2ccc(Br)cc2)cc1Cl (stereo not shown) [I-195, 3-[2-[4-(4-bromophenoxy)-2-chloro-phenyl]-2-hydroxy-propyl]imidazole-4-carbonitrile]",90 to 100,90 to 100,3.55,90 to 100,90 to 100,
"C=CC(C)C(O)(Cn1cncc1C#N)C1(Cl)CC1 (stereo not shown) [I-311, 1-[2-(1-chlorocyclopropyl)-2-hydroxy-3-methylpent-4-en-1-yl]-1H-imidazole-5-carbonitrile]",90 to 100,90 to 100,2.21,90 to 100,80 to 89,
"OC(Cn1cncc1F)c1cnc(Oc2ccc(Br)cc2)cc1C(F)(F)F (stereo not shown) [I-97, 1-[6-(4-bromophenoxy)-4-(trifluoromethyl)-3-pyridyl]-2-(5-fluoroimidazol-1-yl)ethanol]",90 to 100,90 to 100,2.25,90 to 100,70 to 79,
"N#Cc1cncn1CC(O)(C#CC1CCCCC1)C1(Cl)CC1 (stereo not shown) [I-542, 1-[2-(1-chlorocyclopropyl)-4-cyclohexyl-2-hydroxybut-3-yn-1-yl]-1H-imidazole-5-carbonitrile]",,,,,,"chromatographic logP [2, 16]: 2.96; pest or weed control at 500 ppm (Sphaerotheca fuliginea [3]): 80 to 89%"
"NC(=S)c1cncn1CC(O)(c1ccc(Br)cc1Cl)C1(F)CC1 (stereo not shown) [I-432, 3-[2-(4-bromo-2-chloro-phenyl)-2-(1-fluorocyclopropyl)-2-hydroxy-ethyl]imidazole-4-carbothioamide]",90 to 100,90 to 100,1.75,90 to 100,90 to 100,
"CC(O)(Cn1cncc1C#N)c1ccc(Oc2ccc(Br)cc2)cc1C(F)(F)F (stereo not shown) [I-208, 1-{2-[4-(4-bromophenoxy)-2-(trifluoromethyl)phenyl]-2-hydroxypropyl}-1H-imidazole-5-carbonitrile]",70 to 79,90 to 100,3.62,90 to 100,90 to 100,
"N#Cc1cncn1CC(O)(c1ccc(-c2ccc(Cl)cc2)cc1Cl)C1(F)CC1 (stereo not shown) [I-393, 3-[2-[2-chloro-4-(4-chlorophenyl)phenyl]-2-(1-fluorocyclopropyl)-2-hydroxy-ethyl]imidazole-4-carbonitrile]",,,3.64,,,pest or weed control at 500 ppm (Septoria tritici [1]): 80 to 89%; pest or weed control at 500 ppm (Sphaerotheca fuliginea [3]): 90 to 100%; pest or weed control at 500 ppm (Uromyces appendiculatus [4]): 90 to 100%; pest or weed control at 500 ppm (Puccinia recondita [5]): 90 to 100%
"C#CCOc1ccc(C(O)(Cn2cncc2C#N)C2(F)CC2)c(F)c1 (stereo not shown) [I-506, 3-[2-(1-fluorocyclopropyl)-2-(2-fluoro-4-prop-2-ynoxy-phenyl)-2-hydroxy-ethyl]imidazole-4-carbonitrile]",,,,,,"pest or weed control at 500 ppm (Septoria tritici [1]): 90 to 100%; chromatographic logP [2, 16]: 2.23; pest or weed control at 500 ppm (Sphaerotheca fuliginea [3]): 90 to 100%; pest or weed control at 500 ppm (Uromyces appendiculatus [4]): 80 to 89%; pest or weed control at 500 ppm (Puccinia recondita [5]): 80 to 89%"
"O=C(Cn1cncc1Br)c1ccc(Oc2ccc(Br)cc2)cc1Cl [IX-39, 1-[4-(4-bromophenoxy)-2-chloro-phenyl]-2-(5-bromoimidazol-1-yl)ethanone]",,,,,,"pest or weed control at 500 ppm (Septoria tritici [6]): 90 to 100%; chromatographic logP [2, 17]: 3.1; pest or weed control at 500 ppm (Puccinia recondita [7]): 90 to 100%; pest or weed control at 500 ppm (Sphaerotheca fuliginea [8]): 90 to 100%; pest or weed control at 500 ppm (Uromyces appendiculatus [9]): 90 to 100%"
O=C(Cn1cncc1Cl)c1cnc(Oc2ccc(Cl)cc2)cc1C(F)(F)F [IX-43],,,,,,"pest or weed control at 500 ppm (Septoria tritici [6]): 90 to 100%; chromatographic logP [2, 17]: 3.09; pest or weed control at 500 ppm (Puccinia recondita [7]): 80 to 89%; pest or weed control at 500 ppm (Sphaerotheca fuliginea [8]): 90 to 100%; pest or weed control at 500 ppm (Uromyces appendiculatus [9]): 90 to 100%"
O=C(Cn1cncc1Cl)c1ccc(Oc2ccc(Cl)cc2)cc1F [IX-45],,,,,,"pest or weed control at 500 ppm (Septoria tritici [6]): 90 to 100%; chromatographic logP [2, 17]: 2.75; pest or weed control at 500 ppm (Puccinia recondita [7]): 90 to 100%; pest or weed control at 500 ppm (Sphaerotheca fuliginea [8]): 90 to 100%; pest or weed control at 500 ppm (Uromyces appendiculatus [9]): 70 to 79%"
N#Cc1cncn1CC(=O)c1cnc(Oc2ccc(C(F)(F)F)cc2)cc1Br [IX-115],,,,,,"pest or weed control at 500 ppm (Septoria tritici [6]): 90 to 100%; chromatographic logP [2, 17]: 3.37; pest or weed control at 500 ppm (Puccinia recondita [7]): 90 to 100%; pest or weed control at 500 ppm (Sphaerotheca fuliginea [8]): 90 to 100%; pest or weed control at 500 ppm (Uromyces appendiculatus [9]): 90 to 100%"

# — patent US20200031778A1, “NOVEL 5-SUBSTITUTED IMIDAZOLYLMETHYL DERIVATIVES” (Bayer CropScience Aktiengesellschaft, priority 2016, published 2020)
